Experiments:
[1] = tested on: birch pollen allergic patients; assay: Skin prick testing of allergic patients; format: in vivo, human; settings: 100 μg/ml
Protocol: SPTs were performed on the individuals forearms as described ([…]. et al. (1997) J. Clin Invest. 99, 1673-168; Dreborg S: (1989) J. Am. Acad. DerMatol. 21, 820-821). […] In addition standardized skin prick solutions (birch pollen extract and histamine) (Allergopharma, Reinbek, Germany) were tested. Reactions were recorded 20 minutes after SPT by photography and by transferring the ballpoint pen-surrounded wheal area with a scotch tape to paper.

[2] = tested on: IgE antibodies in sera from birch pollen allergic patients; assay: ELISA detection of peptide- and rBet v 1-specific IgE antibodies; format: binding, human
Protocol: Birch pollen allergic patients suffering from allergic rhinoconjunctivitis and/or asthma to birch pollen and related allergens were selected according to case history indicative for seasonal birch pollinosis and characterized by skin prick testing with birch pollen extract and serological CAP RAST (Pharmacia Diagnostics, Uppsala, Sweden) testing. Total IgE levels in the sera were determined by CAP RIST measurements (Pharmacia). […] Sera from 60 birch pollen allergic patients and a non-atopic individual were used for IgE competition studies. The birch pollen allergic patients group consisted of 25 males and 35 females with a mean age of 37 years (ranging from 19-60 years) (Table 2).
Subsequently, plates were incubated with 1:3 diluted sera from 60 birch pollen allergic patients and from a non-atopic individual overnight at 4° C. Bound IgE antibodies were detected with a 1:1000 diluted alkaline-phosphatase-coupled mouse monoclonal anti-human IgE antibody (Pharmingen, San Diego, Calif.).

Sequence: DGGSILKISNKYHTKGDHEVKAEQVKASKEC [Peptide P4, Bet v 1-derived synthetic peptide, position aa 110-139, one cysteine added]
- mean wheal diameter ([1]; individual 1): 0 mm
- mean wheal diameter ([1]; individual 2): 0 mm
- mean wheal diameter ([1]; individual 3): 0 mm
- mean wheal diameter ([1]; individual 4): 0 mm
- mean wheal diameter ([1]; individual 5): 0 mm
- mean wheal diameter ([1]; individual 6 (allergic, without birch pollen allergy)): 0 mm
- IgE (OD) ([2]; serum of NHS, non-allergic control individual): — (Dashes indicate reactivities below the cut-off level (OD=0.050))
- IgE (OD) ([2]; serum of patient 1): — (Dashes indicate reactivities below the cut-off level (OD=0.050))
- IgE (OD) ([2]; serum of patient 2): — (Dashes indicate reactivities below the cut-off level (OD=0.050))
- IgE (OD) ([2]; serum of patient 3): — (Dashes indicate reactivities below the cut-off level (OD=0.050))
- IgE (OD) ([2]; serum of patient 4): — (Dashes indicate reactivities below the cut-off level (OD=0.050))
- IgE (OD) ([2]; serum of patient 5): — (Dashes indicate reactivities below the cut-off level (OD=0.050))
- IgE (OD) ([2]; serum of patient 6): — (Dashes indicate reactivities below the cut-off level (OD=0.050))
- IgE (OD) ([2]; serum of patient 7): — (Dashes indicate reactivities below the cut-off level (OD=0.050))
- IgE (OD) ([2]; serum of patient 8): — (Dashes indicate reactivities below the cut-off level (OD=0.050))
- IgE (OD) ([2]; serum of patient 9): — (Dashes indicate reactivities below the cut-off level (OD=0.050))
- IgE (OD) ([2]; serum of patient 10): — (Dashes indicate reactivities below the cut-off level (OD=0.050))
- IgE (OD) ([2]; serum of patient 11): — (Dashes indicate reactivities below the cut-off level (OD=0.050))
- IgE (OD) ([2]; serum of patient 12): — (Dashes indicate reactivities below the cut-off level (OD=0.050))
- IgE (OD) ([2]; serum of patient 13): — (Dashes indicate reactivities below the cut-off level (OD=0.050))
- IgE (OD) ([2]; serum of patient 14): — (Dashes indicate reactivities below the cut-off level (OD=0.050))
- IgE (OD) ([2]; serum of patient 15): — (Dashes indicate reactivities below the cut-off level (OD=0.050))
- IgE (OD) ([2]; serum of patient 16): — (Dashes indicate reactivities below the cut-off level (OD=0.050))
- IgE (OD) ([2]; serum of patient 17): — (Dashes indicate reactivities below the cut-off level (OD=0.050))
- IgE (OD) ([2]; serum of patient 18): — (Dashes indicate reactivities below the cut-off level (OD=0.050))
- IgE (OD) ([2]; serum of patient 19): — (Dashes indicate reactivities below the cut-off level (OD=0.050))
- IgE (OD) ([2]; serum of patient 20): — (Dashes indicate reactivities below the cut-off level (OD=0.050))
- IgE (OD) ([2]; serum of patient 21): — (Dashes indicate reactivities below the cut-off level (OD=0.050))
- IgE (OD) ([2]; serum of patient 22): — (Dashes indicate reactivities below the cut-off level (OD=0.050))
- IgE (OD) ([2]; serum of patient 23): — (Dashes indicate reactivities below the cut-off level (OD=0.050))
- IgE (OD) ([2]; serum of patient 24): — (Dashes indicate reactivities below the cut-off level (OD=0.050))
- IgE (OD) ([2]; serum of patient 25): — (Dashes indicate reactivities below the cut-off level (OD=0.050))
- IgE (OD) ([2]; serum of patient 26): — (Dashes indicate reactivities below the cut-off level (OD=0.050))
- IgE (OD) ([2]; serum of patient 27): — (Dashes indicate reactivities below the cut-off level (OD=0.050))
- IgE (OD) ([2]; serum of patient 28): — (Dashes indicate reactivities below the cut-off level (OD=0.050))
- IgE (OD) ([2]; serum of patient 29): — (Dashes indicate reactivities below the cut-off level (OD=0.050))
- IgE (OD) ([2]; serum of patient 30): — (Dashes indicate reactivities below the cut-off level (OD=0.050))
- IgE (OD) ([2]; serum of patient 31): — (Dashes indicate reactivities below the cut-off level (OD=0.050))
- IgE (OD) ([2]; serum of patient 32): — (Dashes indicate reactivities below the cut-off level (OD=0.050))
- IgE (OD) ([2]; serum of patient 33): — (Dashes indicate reactivities below the cut-off level (OD=0.050))
- IgE (OD) ([2]; serum of patient 34): — (Dashes indicate reactivities below the cut-off level (OD=0.050))
- IgE (OD) ([2]; serum of patient 35): — (Dashes indicate reactivities below the cut-off level (OD=0.050))
- IgE (OD) ([2]; serum of patient 36): — (Dashes indicate reactivities below the cut-off level (OD=0.050))
- IgE (OD) ([2]; serum of patient 37): — (Dashes indicate reactivities below the cut-off level (OD=0.050))
- IgE (OD) ([2]; serum of patient 38): — (Dashes indicate reactivities below the cut-off level (OD=0.050))
- IgE (OD) ([2]; serum of patient 39): — (Dashes indicate reactivities below the cut-off level (OD=0.050))
- IgE (OD) ([2]; serum of patient 40): — (Dashes indicate reactivities below the cut-off level (OD=0.050))
- IgE (OD) ([2]; serum of patient 41): — (Dashes indicate reactivities below the cut-off level (OD=0.050))
- IgE (OD) ([2]; serum of patient 42): — (Dashes indicate reactivities below the cut-off level (OD=0.050))
- IgE (OD) ([2]; serum of patient 43): — (Dashes indicate reactivities below the cut-off level (OD=0.050))
- IgE (OD) ([2]; serum of patient 44): — (Dashes indicate reactivities below the cut-off level (OD=0.050))
- IgE (OD) ([2]; serum of patient 45): — (Dashes indicate reactivities below the cut-off level (OD=0.050))
- IgE (OD) ([2]; serum of patient 46): — (Dashes indicate reactivities below the cut-off level (OD=0.050))
- IgE (OD) ([2]; serum of patient 47): — (Dashes indicate reactivities below the cut-off level (OD=0.050))
- IgE (OD) ([2]; serum of patient 48): — (Dashes indicate reactivities below the cut-off level (OD=0.050))
- IgE (OD) ([2]; serum of patient 49): — (Dashes indicate reactivities below the cut-off level (OD=0.050))
- IgE (OD) ([2]; serum of patient 50): — (Dashes indicate reactivities below the cut-off level (OD=0.050))
- IgE (OD) ([2]; serum of patient 51): — (Dashes indicate reactivities below the cut-off level (OD=0.050))
- IgE (OD) ([2]; serum of patient 52): — (Dashes indicate reactivities below the cut-off level (OD=0.050))
- IgE (OD) ([2]; serum of patient 53): — (Dashes indicate reactivities below the cut-off level (OD=0.050))
- IgE (OD) ([2]; serum of patient 54): — (Dashes indicate reactivities below the cut-off level (OD=0.050))
- IgE (OD) ([2]; serum of patient 55): — (Dashes indicate reactivities below the cut-off level (OD=0.050))
- IgE (OD) ([2]; serum of patient 56): — (Dashes indicate reactivities below the cut-off level (OD=0.050))
- IgE (OD) ([2]; serum of patient 57): — (Dashes indicate reactivities below the cut-off level (OD=0.050))
- IgE (OD) ([2]; serum of patient 58): — (Dashes indicate reactivities below the cut-off level (OD=0.050))
- IgE (OD) ([2]; serum of patient 59): — (Dashes indicate reactivities below the cut-off level (OD=0.050))
- IgE (OD) ([2]; serum of patient 60): — (Dashes indicate reactivities below the cut-off level (OD=0.050))

— patent US7244431B2, “Allergy vaccines and their preparation” (priority 2000, dated 2007)
